Measurements: patent US11344601B2, “Tumor microenvironment-related target TAK1 and application thereof in inhibition of tumor” (Shanghai Institutes for Biological Sciences, Chinese …, priority 2017, dated 2022)
Several values for one entry are separate records, joined by “and”; a condition that tells them apart may be missing. Equal entries are not always repeated.

How the values were obtained:
[1] = test system: p38MAPK, JNK, ATM; experiment: Western blot of JNK, p38MAPK and ATM phosphorylation in damaged stromal cells; assay type: cell-based, human; conditions: bleomycin and/or SB203580
Experimental: (§1) The nitrocellulose filter membrane was blocked at room temperature for 1 h in the blocking solution (TBST containing 5% skim milk powder (0.1% Tween-20 in TBS)), incubated overnight at 4° C. in a primary antibody solution, rinsed at TBST room temperature for 3 times, each for 2 min. The corresponding secondary antibody conjugated with HRP prepared with the blocking solution was added, the filter membrane was incubated at room temperature for 0.5 h. The filter membrane was rinsed with PBST at room temperature for 3 times, each for 2 min.

[2] = test system: prostate-derived stromal cell line PSC27 and epithelial cancer cell line PC3 xenograft tumors; experiment: Preclinical chemotherapy trial, subcutaneous PC3/PSC27 tissue-recombinant tumors, terminal tumor volume; assay type: in vivo, ICR-SCID mice; conditions: for further decrease in terminal tumor volume: inhibitor combined with mitoxantrone (MIT) vs mitoxantrone alone (group 8 vs group 6); for decrease in terminal tumor volume: mitoxantrone alone vs no drug (group 6 vs group 5)
Experimental: All experimental mouse experiments were carried out in strict accordance with the relevant regulations of the Institutional animal care and use committee (IACUC) of the shanghai Institute of Life Sciences of the Chinese Academy of Sciences. ICR-SCID mice at an age of about 6 weeks (about 25 g in body weight) were used in this patent-related animal experiment. Stromal cells PSC27 and epithelial cells were mixed at a ratio of 1:4, with each implant containing 1.25×10^6 cells for tissue recombination. The transplant tumor was implanted into mice subcutaneously, and the animals were euthanized at the end of Week 8 after transplantation. The tumor volume was calculated according to the following formula: V=(π/6)×((l+w)/2)^3 (V, volume; l, length; w, width). Similarly, lung and breast cancer xenograft tumors were formed by tissue recombination with A549 (non-small cell lung cancer cell line) and W138 (lung fibroblast line), MDA-MB-231 (triple negative breast cancer cell line) and HBF1203 (breast fibroblast line), respectively.
In the preclinical chemotherapy trial, mice subcutaneously transplanted with tumors were fed standard experimental diet. After 2 weeks, the chemotherapeutics mitoxantrone (dose of 0.2 mg/kg) and/or SASP inhibitors (500 μl, dose of 10 mg/kg, RAD001, SB203580 and 5Z-7 were purchased from Tocris; LYTAK, purchased from Lilly Co ((Indianapolis, Ind.), 5 mg/kg) were administrated intraperitoneally. The timepoint was the first day of Week 3, 5, 7, and the whole course of treatment was composed of three cycles of administration, each cycle lasted for 2 weeks. After the course of treatment, mouse […] was collected for tumor measurement and histological analysis. Each mouse received cumulatively 0.6 mg mitoxantrone/kg body weight and 30 mg SASP inhibitor/kg body (15 mg/kg body weight for LYTAK1). Mice xenografted with lung cancer and breast cancer tumor received bleomycin (totally 0.3 mg/kg) and doxorubicin (totally 0.2 mg/kg), respectively. The timepoints and frequency were same as the administration of mitoxantrone. The chemotherapeutic trial was performed until the end of Week 8, and the mice were dissected immediately after death. The transplant tumors were collected and used for analysis in a pathological system.
In order to simulate clinical conditions as much as possible, the present inventor inoculated the subcutaneous site of immunodeficient mice with an admixture of prostate-derived stromal cell line PSC27 and epithelial cancer cell line PC3. The mice subsequently underwent a regimen of 8-week preclinical chemotherapy, which included three single- or double-drug treatments based on a series of pre-experimental data (FIGS. 64 and 65). In the absence of stromal cells, PC3 cells were still able to form tumors under screening pressure caused by chemotherapeutics, though their volumes were smaller than that generated in the case of concurrent inoculation of stromal cells and cancer cells. Such difference also objectively confirmed the tumor-promoting effect of the microenvironment (FIG. 66).

[3] = test system: NF-κB complex; experiment: NF-κB activation in bleomycin-treated stromal cells (nuclear translocation, luciferase reporter); assay type: cell-based, human; conditions: for NF-κB transcriptional activity (reporter vector): bleomycin plus inhibitor, luciferase reporter
Experimental: FIG. 22. The stromal cells pre-transduced with the NF-κB transcriptional luciferase reporter vector were treated with bleomycin and/or RAD001. The cells were collected on Day 7 and detected for the fluorescence signal intensity of the reporter vector.
FIG. 32. Detection of NF-kB transcriptional activity based on the reporter vector. Stromal cells were treated with bleomycin along with the PI3K small molecule inhibitor LY294002 (1 μM), Akt inhibitor MK-2206 (100 nM), mTOR inhibitor RAD001 (50 nM), p38 inhibitor SB203580 (10 μM) and TAK1 inhibitor 5Z-7 (500 nM), respectively, and cell lysates were used for determining luciferase activity.
The […] vector pBABE-puro-IκBα-mut (Super repressor) containing two phosphorylated mutant sites of IKK at S32A and S34A on the IκBα protein encoding sequence were used for transfection of lentivirus-packing cell line phoenix. Lentiviruses were subsequently used to infect PSC27 stromal cell line, whereas 1 μg/ml puromycin was used to screen positive clones. As another method, 5 μm of the small molecule inhibitor Bay11-7082 (purchased from Selleck) was used for NF-κB activity control. Stromal cells were subsequently exposed to several different forms of cytotoxicity, with the resulting phenotype recorded in time, and the relevant gene expression analyzed. The resulted conditioned culture medium produced from cells processed in this way was collected for various detection of epithelial cells.
Even so, is TAK1 activated indirectly by upstream DDR signaling associated with activation of a core transcription factor, NF-κB complex involved in the broad-spectrum expression of the SASP? The NF-κB complex was previously reported to be mediated by mono-ubiquitination of IκB kinase subunit γ (IKKγ) in cytoplasm. After isolating nucleus from cytoplasmic proteins using a kit, the inventor finds that TAK1 phosphorylation is associated with nuclear translocation of p50 and p65, the two main subunits of NF-κB complex (FIG. 4).

[4] = test system: IL-8; experiment: IL-8 protein expression of damaged stromal cells (Western blot, ELISA); assay type: cell-based, human; conditions: ELISA of extracellular fluid, bleomycin plus inhibitor
Experimental: FIG. 15. The stromal cells were collected on Day 7 after bleomycin and/or 5Z-7 treatment. The lysates were analyzed by Western blot for their phosphorylation levels of ATM and TAK1, and activation of TAK1 downstream substrate JN K and p38. IL-8, a chemokine was used as a marker secreted factor of SASP, whose expression level was simultaneously analyzed. FIG. 33. The extracellular fluid released by each group of cells were tested by ELISA to determine the protein expression level of the secreted factor IL-8.

[5] = biological target: T1, mTOR (Homo sapiens, UniProt P42345+P62942); experiment: Western blot of Akt/mTOR pathway activation in bleomycin-treated stromal cells; assay type: cell-based
T1 construct: endogenous in cells; host or cells: PSC27 human prostate stromal cells
Experimental: as §1

[6] = test system: PSC27 cells; experiment: DNA damage response foci, colony formation, cell cycle arrest and SA-β-Gal in PSC27 cells; assay type: cell-based, human
Experimental: Experimental Treatment In Vitro • 100 nM docetaxel (DTX), 100 nM paclitaxel (PTX), 200 nM vincristine (VCR), 50 μg/ml bleomycin (BLEO), 1 μM mitoxantrone (MIT), or 10 Gy ^137CS ionizating radiation (γ-radiation at 743 rad/min, RAD) was added to the culture medium when PSC27 cells grown to 80% (PSC27-Pre) to produce cell damage. After drug treatment for 6 hours, the cells were simply washed by PBS for 3 times and kept in the culture medium for 7 to 10 days, followed by subsequent experiments. […] Immunofluorescence and Histochemical Analysis • Mouse monoclonal antibody anti-phospho-Histone H2A.X (Ser139) (clone JBW301, Millipore) or mouse monoclonal antibody anti-Phosphor-53BP1 (Cat #sc-135748, Santa Cruz), and secondary antibody Alexa Fluor® 488 (or 594)-conjugated F(ab′)2 were added sequentially to slides on which cells were fixed. Nuclei were counterstained with 2 μg/ml of 4′,6-diamidino-2-phenylindole (DAPI). The most representative image was selected from the 3 observation fields for data analysis and result presentation. FV1000 laser scanning confocal microscopy (Olympus) was used to obtain cellular confocal fluorescence images to determine the extent of DNA damage. • Antibody anti-TAK1 used for histological IHC staining in clinical prostate, non-small cell lung cancer patients and breast cancer patients, was purchased from Proteintech, idib.

[7] = biological target: T2, TAK1 (Homo sapiens, UniProt O43318); experiment: IP, in vitro kinase assay and Western blot of TAK1 activation in damaged PSC27 stromal cells; assay type: cell-based; conditions: PSC27 cells treated with IL-1α (20 ng/ml)
T2 construct: PSC27 cells were treated with bleomycin and cell lysates were subject to anti-p-TAK1-mediated IP precipitation; endogenous in cells; host or cells: PSC27 human prostate stromal cells
T2 sequence (O43318 1-606): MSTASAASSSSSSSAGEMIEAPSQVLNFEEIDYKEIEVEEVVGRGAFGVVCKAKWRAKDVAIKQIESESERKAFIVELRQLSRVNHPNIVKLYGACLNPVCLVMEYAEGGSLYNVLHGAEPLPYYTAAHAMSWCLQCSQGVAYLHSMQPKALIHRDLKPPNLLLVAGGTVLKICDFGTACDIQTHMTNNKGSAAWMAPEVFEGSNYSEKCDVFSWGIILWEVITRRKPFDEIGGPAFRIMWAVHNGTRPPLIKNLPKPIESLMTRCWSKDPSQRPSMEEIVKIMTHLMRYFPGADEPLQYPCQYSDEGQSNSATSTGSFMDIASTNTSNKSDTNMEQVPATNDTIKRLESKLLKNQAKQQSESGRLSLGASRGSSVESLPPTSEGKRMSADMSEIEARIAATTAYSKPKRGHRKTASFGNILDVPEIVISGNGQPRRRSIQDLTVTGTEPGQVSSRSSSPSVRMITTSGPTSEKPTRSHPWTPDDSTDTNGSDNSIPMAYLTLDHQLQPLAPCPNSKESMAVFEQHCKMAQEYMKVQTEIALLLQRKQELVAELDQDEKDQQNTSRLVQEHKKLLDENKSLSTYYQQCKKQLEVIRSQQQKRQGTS
Experimental: In the presence of the TAK1 inhibitor 5Z-7, PSC27 cells were treated with bleomycin and cell lysates were subject to anti-p-TAK1-mediated IP precipitation. IP products were analyzed by in vitro kinase assay, and MKK6 was used as TAK1 substrate. p38 phosphorylation was analyzed by Western blot with GAPDH as the loading control. In addition, IL-1α (20 ng/ml) was used to treat stromal cells and was further analyzed by similar IP and in vitro kinase assay.

Compound: C[S+]([O-])c1ccc(-c2nc(-c3ccncc3)c(-c3ccc(F)cc3)[nH]2)cc1 (centres unmarked) [SB203580]
- phosphorylation level of p38 [1]: significantly reduce
- further decrease in terminal tumor volume ([2]; end of Week 8): 46%
- NF-κB transcriptional activity (reporter vector) [3]: significantly reduced
- chemokine IL-8 protein levels induced by DNA damage [4]: significantly reduced

Compound: CO[C@H]1C[C@@H]2CC[C@@H](C)[C@@](O)(O2)C(=O)C(=O)N2CCCC[C@H]2C(=O)O[C@H]([C@H](C)C[C@@H]2CC[C@@H](OCCO)[C@H](OC)C2)CC(=O)[C@H](C)/C=C(\C)[C@@H](O)[C@@H](OC)C(=O)[C@H](C)C[C@H](C)/C=C/C=C/C=C/1C [RAD001]
- activation of mTOR substrates S6K1 and 4E-BP1 ([5]; bleomycin and/or RAD001, Day 7): inhibition of S6K1 and 4E-BP1 activation
- further decrease in terminal tumor volume ([2]; end of Week 8): 44%
- phosphorylation of IKKβ, degradation of IRAK1 and IkBα, nuclear translocation of p65 and p50 ([3]; after DNA damage, RAD001 added to the medium): largely abolished
- NF-κB transcriptional activity (reporter vector) [3]: significantly attenuated
- cell cycle arrest and SA-β-Gal activity ([6]; bleomycin-damaged stromal cells in the presence of RAD001): remained unaffected
- single-cell level of DDR foci ([6]; bleomycin-treated cells, presence or absence of inhibitor): remained unchanged

Compound: IL-1α: cytokine, known upstream regulatory factor for TAK1
- TAK1/MKK6 interaction [7]: significantly enhanced
- p38 kinase activity [7]: significantly increased

Compound: NC1(c2ccc(-c3nc4ccn5c(=O)[nH]nc5c4cc3-c3ccccc3)cc2)CCC1 [MK-2206]
- activity of mTOR ([5]; simultaneous treatment of bleomycin and MK-2206): significantly downregulated
- NF-κB transcriptional activity (reporter vector) [3]: significantly reduced
- chemokine IL-8 protein levels induced by DNA damage [4]: significantly reduced

Compound: O=C1c2c(O)ccc(O)c2C(=O)c2c(NCCNCCO)ccc(NCCNCCO)c21 [mitoxantrone]
- decrease in terminal tumor volume ([2]; end of Week 8): 37%
- decrease in terminal tumor volume ([2]; end of Week 8, listed as MIT): 37% and 36%
